# Data published in patent US12544384B2, “Antibiotic conjugates” (priority 2018, dated 2026).
# Where two headings read alike, the source gives them in different places.
# Columns and labels:
# [1] = test system: A. baumannii ATCC 17978; assay: MIC, antimicrobial susceptibility assay in iron depleted media; type: cell-based, Acinetobacter baumannii; conditions: for Antibacterial activity (in words): A. baumannii ATCC 17978, low amount of ADC-1; for MIC: Acinetobacter baumannii, ATCC17978, A. baumannii ATCC 17978, small amount of chromosomal ADC-1, iron depleted media, average of three measurements
# Description: (§1) For this purpose, A. baumannii ATCC 17978, which produces a small amount of the chromosomally-encoded enzyme, and the same strain that produces a large amount of ADC-1 from the pNT255 vector were used (Table 1).
# [2] = test system: E. coli DC0; assay: MIC against other Gram-negative bacteria; conditions: for Antibacterial activity (in words): Escherichia coli DC0; for MIC: Escherichia coli, DC0, read-out: Activity (MIC)
# Procedure: (§3) This plasmid was then introduced by electroporation into A. baumannii ATCC 17978 for MIC measurements. MIC analyses were performed using iron depleted media as described previously (Ghosh, J. Med. Chem., 2017, 60, 4577-4583).
# [3] = test system: A. baumannii ATCC 17978 pNT225: ADC-1; assay: MIC, antimicrobial susceptibility assay, strain with plasmid-encoded ADC-1 β-lactamase; type: cell-based, Acinetobacter baumannii; conditions: for MIC: Acinetobacter baumannii, ATCC17978, read-out: Activity (MIC)
# Description: as §1
# [4] = test system: A. baumannii ATCC 17961; assay: MIC against clinical isolate; type: cell-based, Acinetobacter baumannii; conditions: for MIC: Acinetobacter baumannii; for Antibacterial activity (in words): clinical isolate ATCC 17961
# Procedure: (§2) Subsequently, the activities of the disclosed compounds were evaluated against four clinical isolates of A. baumannii (ATCC 17961, ATCC BAA1793, ATCC BAA1797 and ATTC BAA1800). All four A. baumannii isolates were resistant to compounds 3, 22, 23, and 27. Strain ATCC 17961 was susceptible to both 26 and 1, indicating lack of or low β-lactamase content and/or activity.
# [5] = test system: A. baumannii ATCC BAA 1800; assay: MIC against clinical isolate; type: cell-based, Acinetobacter baumannii; conditions: for MIC: Acinetobacter baumannii; for Antibacterial activity (in words): clinical isolate ATCC BAA1800
# Procedure: as §2
# [6] = test system: A. baumannii ATCC BAA 1797; assay: MIC against clinical isolate; type: cell-based, Acinetobacter baumannii; conditions: for MIC: Acinetobacter baumannii; for Antibacterial activity (in words): clinical isolate ATCC BAA1797
# Procedure: as §2
# [7] = test system: A. baumannii ATCC BAA 1793; assay: MIC against clinical isolate; type: cell-based, Acinetobacter baumannii; conditions: for MIC: Acinetobacter baumannii; for Antibacterial activity (in words): clinical isolate ATCC BAA1793
# Procedure: as §2
# [8] = test system: A. baumannii ATCC 17978 pNT255; assay: MIC, antimicrobial susceptibility assay, strain with pNT255 vector; type: cell-based; conditions: Acinetobacter baumannii, ATCC17978, read-out: Activity (MIC)
# Description: as §1
# [9] = test system: P. aeruginosa KW799/wt; assay: MIC against other Gram-negative bacteria; conditions: for Antibacterial activity (in words): Pseudomonas aeruginosa KW799
# Procedure: as §3
# [10] = test system: ADC-1 β-lactamase; assay: Enzymatic hydrolysis by ADC-1, LC/MS; type: biochemical, A. baumannii; conditions: 20 μM compound, 20 μM ADC-1, 50 mM sodium phosphate pH 7.4, room temperature, 40 min
# Procedure: With the final siderophore-cephalosporin-oxazolidinone conjugate (1) along with the separate cephalosporin and oxazolidinone conjugates (26 and 27) as well as the corresponding cephalosporin (23), oxazolidinone (3) and eperezolid (17) available, enzymatic and anti-bacterial assays were performed to test the susceptibility of conjugate (1) to the hydrolytic activity of β-lactamases from Gram-negative bacteria. Thus, assays were conducted to evaluate whether the oxazolidinone could be efficiently released from the final siderophore-cephalosporin-oxazolidinone conjugate (1) as a result of cephalosporin hydrolysis by a β-lactamase. For this purpose, one of the ADC-type β-lactamases (ADC-1) was chosen as ADC enzymes are intrinsic to A. baumannii, an important clinical pathogen, and are capable of hydrolyzing cephalosporin antibiotics.
# The ADC-1 β-lactamase was expressed and purified as previously described (Bhattacharya et al., Acta Crystallogr., Sect. D: Biol. Crystallogr., 2014, 70, 760-771). Conjugate 1 (10 mM in DMSO) was diluted 5-fold in DMSO and then another 10-fold in 50 mM sodium phosphate, pH 7.4 to give a 200 μM solution with 10% DMSO. Subsequently, a 60 μL reaction was prepared consisting of 20 μM of 1 (6 μL of a 200 μM solution) and 20 μM ADC-1 β-lactamse (8.1 μL of 148 μM enzyme) in 50 mM sodium phosphate, pH 7.4 (the final concentration of DMSO was 1%). […]
# [11] = test system: Mycobacterium tuberculosis (Mtb); conditions: background statement; cited from earlier work
# [12] = ATCC17961, read-out: Activity (MIC)
# [13] = BAA1800, read-out: Activity (MIC)
# [14] = BAA1797, read-out: Activity (MIC)
# [15] = BAA1793, read-out: Activity (MIC)
# [16] = Pseudomonas aeruginosa, KW799/WT, read-out: Activity (MIC)
# [17] = ATCC17961, A. baumannii ATCC 17961, read-out: Activity (MIC)
# [18] = BAA1800, A. baumannii ATCC BAA 1800, read-out: Activity (MIC)
# [19] = BAA1797, A. baumannii ATCC BAA 1797, read-out: Activity (MIC)
# [20] = BAA1793, A. baumannii ATCC BAA 1793, read-out: Activity (MIC)
SMILES,Antibacterial activity (in words) [1],MIC [1] [µM],Antibacterial activity (in words) [2],MIC [2] [µM],MIC [3] [µM],"MIC [4, 12] [µM]",Antibacterial activity (in words) [4],"MIC [5, 13] [µM]",Antibacterial activity (in words) [5],"MIC [6, 14] [µM]",Antibacterial activity (in words) [6],"MIC [7, 15] [µM]",Antibacterial activity (in words) [7],MIC [8] [µM],Antibacterial activity (in words) [9],"MIC [9, 16] [µM]",also measured
"CC(=O)NC[C@H]1CN(c2ccc(N3CCN(C(=O)CNC(=O)CN(CCCCNC(=O)c4cccc(O)c4O)C(=O)c4cccc(O)c4O)CC3)c(F)c2)C(=O)O1 [Compound 27, (S)—N-(2-((2-(4-(4-(5-(Acetamidomethyl)-2-oxooxazolidin-3-yl)-2-fluorophenyl)piperazin-1-yl)-2-oxoethyl)amino)-2-oxoethyl)-N-(4-(2,3-dihydroxybenzamido)butyl)-2,3-dihydroxybenzamide]",not active,> 50,not active,> 50,> 50,> 50,resistant,> 50,resistant,> 50,resistant,> 50,resistant,> 50,not active,> 50,
"CC(=O)NC[C@H]1CN(c2ccc(N3CCN(C(=O)CNC(=O)OCC4=C(C(=O)O)N5C(=O)[C@@H](NC(=O)C(NC(=O)CN(CCCCNC(=O)c6cccc(O)c6O)C(=O)c6cccc(O)c6O)c6ccccc6)[C@H]5SC4)CC3)c(F)c2)C(=O)O1 (stereo partly drawn) [Compound 1, (6R,7R)-3-((((2-(4-(4-((S)-5-(Acetamidomethyl)-2-oxooxazolidin-3-yl)-2-fluorophenyl)piperazin-1-yl)-2-oxoethyl)carbamoyl)oxy)methyl)-7-(2-(2-(N-(4-(2,3-dihydroxybenzamido)butyl)-2,3-dihydroxybenzamido)acetamido)-2-phenylacetamido)-8-oxo-5-thia-1-azabicyclo[4.2.0]oct-2-ene-2-carboxylic acid]",similarly potent activity,0.4,remarkably active,< 0.025,6,0.8,susceptible,0.8,very active,6.25,very active,0.8 to 1.6,very active,0.4,remarkably active,0.2 to 0.4,"Hydrolysis by purified ADC-1 and release of oxazolidinone [10]: rapid and complete hydrolysis and release of the oxazolidinone; Decrease of MIC compared to the siderophore-cephalosporin ([3]; A. baumannii with plasmid-encoded β-lactamase, versus 26): at least 8 fold"
"CC(=O)OCC1=C(C(=O)O)N2C(=O)[C@@H](NC(=O)C(NC(=O)CN(CCCCNC(=O)c3cccc(O)c3O)C(=O)c3cccc(O)c3O)c3ccccc3)[C@H]2SC1 (stereo partly drawn) [Compound 26, (6R,7R)-3-(Acetoxymethyl)-7-(2-(2-(N-(4-(2,3-dihydroxybenzamido)butyl)-2,3-dihydroxybenzamido)acetamido)-2-phenylacetamido)-8-oxo-5-thia-1-azabicyclo[4.2.0]oct-2-ene-2-carboxylic acid]",remarkably active,0.4,remarkably active,< 0.025,> 50,,susceptible,,detectable activity,,resistant,,detectable activity,0.4,remarkably active,0.4,"Antibacterial activity (in words) ([3]; A. baumannii with plasmid-encoded β-lactamase (pNT255:adc1)): highly resistant; MIC [4, 17]: 0.8 µM; MIC [5, 18]: 25 µM; MIC [6, 19]: > 50 µM; MIC [7, 20]: 12.5 µM; MIC ([9]; vs P. aeruginosa KW799/wt): 0.4"
C[C@@H]1CC[C@H]2[C@@H](C)C(=O)O[C@@H]3O[C@@]4(C)CC[C@@H]1[C@]32OO4 [artemisinin],,,,,,,,,,,,,,,,,Anti-tuberculosis activity (in words) [11]: no anti-tuberculosis activity
"CC(=O)NC[C@H]1CN(c2ccc(N3CCN(C(=O)CNC(=O)OCC4=C(C(=O)O)N5C(=O)[C@@H](NC(=O)C(N)c6ccccc6)[C@H]5SC4)CC3)c(F)c2)C(=O)O1 (stereo partly drawn) [Compound 22, (6R,7R)-3-((((2-(4-(4-((S)-5-(Acetamidomethyl)-2-oxooxazolidin-3-yl)-2-fluorophenyl)piperazin-1-yl)-2-oxoethyl)carbamoyl)oxy)methyl)-7-(2-amino-2-phenylacetamido)-8-oxo-5-thia-1-azabicyclo[4.2.0]oct-2-ene-2-carboxylic acid]",not active,> 50,not active,> 50,> 50,,resistant,,resistant,,resistant,,resistant,> 50,not active,> 50,"MIC [4, 17]: > 50 µM; MIC [5, 18]: > 50 µM; MIC [6, 19]: > 50 µM; MIC [7, 20]: > 50 µM"
"CC(=O)NC[C@H]1CN(c2ccc(N3CCN(C(=O)CN)CC3)c(F)c2)C(=O)O1 [Compound 3, (S)—N-((3-(3-Fluoro-4-(4-glycylpiperazin-1-yl)phenyl)-2-oxooxazolidin-5-yl)methyl)acetamide]",not active,> 500,not active,> 50,> 500,> 50,resistant,> 50,resistant,> 50,resistant,> 50,resistant,> 500,not active,> 50,
"CC(=O)NC[C@H]1CN(c2ccc(N3CCN(C(=O)CO)CC3)c(F)c2)C(=O)O1 [Compound 17, eperezolid, reference compound]",not active,> 50,,,> 50,,,,,,,,,> 50,,,
